Experimental findings from patent US5760022A, “Pharmaceutical composition with improved bioavailability of inositol phosphate” (Perstorp AB, priority 1994, dated 1998) are described below.

Counter-ions that a name gives are not always drawn.

This data set is described as follows: bioavailability of IP3 in pigs: concentration of IP3 in blood samples and AUC after intravenous injection, intraduodenal/oral formulation and oral sodium salt. The settings on record: pig, in vivo. The procedure: The blood samples were assayed for the content of IP3 and these measurements were used for the calculation of the reference data as 100% of the substance is introduced into the blood stream after an intravenous injection. Another five pigs were given the composition comprising the mixture of 2,3-dihydroxypropyl octanoate and IP3 as an intraduodenal dosing. The animals were treated with Atropin and anaesthetized with Hypnodil®/Sedaperone® whereafter a laparotomy was carried out. Blood samples were collected at the time intervals mentioned above and the concentration of IP3 was determined in each sample. By calculating the area under the curve (AUC) from a graph where the concentration versus time is shown and comparing the obtained value with a similar calculation from the data after intravenous injection of the substance the bioavailability for this specific formulation is obtained.
Blood samples were collected at the same time intervals as above and the concentration of IP3 was determined. Following a similar procedure the AUC was determined.
Blood samples were collected and the concentration of IP3 were determined.

On to `O=P(O)(O)O[C@@H]1[C@H](OP(=O)(O)O)[C@H](O)[C@@H](O)[C@H](O)[C@H]1OP(=O)(O)O` [sodium salt of IP3, D-myo-inositol-1,2,6-trisphosphate], for which the “Normalized AUC (%)” value is 3%. For the setting “iv”, the “Normalized AUC (%)” value is on record as 100%, the concentration at 0.25 h is 53700 nM, the concentration at 0.5 h amounted to 40000 nM and the concentration at 1 h was 21600 nM. Besides, for the setting “iv”, the concentration at 1.5 h turned out to be 12100 nM, the concentration at 4 h amounted to 2600 nM and the concentration at 8 h is 600 nM. In addition, for the setting “iv, 0 min”, the “conc IP3” value came to 0 nM. In addition, for the setting “po”, the concentration at 0.5 h worked out at 600 nM, the concentration at 1.5 h came to 500 nM, the concentration at 2 h is 600 nM and the concentration at 4 h worked out at 400 nM. For the setting “po”, the concentration at 6 h was 400 nM. Besides, the “conc IP3” value (po, 0 min) came to 0 nM. Also, the “conc IP3” value (po, 480 min) was 0 nM.
